# Reference: patent US12649750B2, “Macrocyclic compounds, compositions, and methods of using thereof” (Sionna Therapeutics Inc., priority 2022, dated 2026)
# How the values were obtained:
# NBD1 = biological target: T1, NBD1 (Homo sapiens, UniProt P13569); assay: Aggregation analysis using differential static light scattering (DSLS), thermal stability of NBD1 (ΔTagg); assay type: binding; conditions: ΔTagg versus DMSO control, NBD1 0.2 mg/ml
# T1 construct: Purified recombinant NBD1 was produced using previously described methods; made in house
# How it was run: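 Thermal aggregation of purified NBD1 was followed by static light scattering during a 1° C./min ramp to 70° C. Protein was at 0.2 mg/ml with 2 mM ATP at pH7.6. Each compound's Tagg was referenced to DMSO controls.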
# CFTR = biological target: T2, CFTR (Homo sapiens, UniProt P13569, DEL508-508); assay: TECC24 AUC fold over DMSO @10 μM, CFTR-mediated transepithelial chloride transport in CF-HBE cells; assay type: cell-based; conditions: test agent AUC divided by DMSO vehicle AUC, primary CF-HBE cells, ΔF508 homozygous donor, 48 hours incubation
# T2 construct: Primary human bronchial epithelial cells from a ΔF508 homozygous CF donor; host or cells: primary human bronchial epithelial cells (CF-HBE), ΔF508 homozygous donor
# Protocol: Example 387. TECC24 AUC Fold Over DMSO @10 μM
# The effects of a test agent on CFTR-mediated transepithelial chloride transport is measured using TECC24 recording analysis. Test agents are solubilized in DMSO. Solubilized test agents are mixed with incubation medium containing DMEM/F12, Ultroser G (2%; Crescent Chemical, catalog #67042), Hyclone Fetal Clone II (2%; GE Healthcare, catalog #SH30066.02), bovine brain extract (0.25%; Lonza, catalog #CC-4098), insulin (2.5 μg/mL), IL-13 (10 ng/mL), hydrocortisone (20 nM), transferrin (2.5 μg/mL), triiodothyronine (500 nM), ethanolamine (250 nM), epinephrine (1.5 μM), phosphoethanolamine (250 nM), and retinoic acid (10 nM). Primary human bronchial epithelial cells from a ΔF508 homozygous CF donor (CF-HBE cells; from University of North Carolina Cystic Fibrosis Tissue Procurement Center), grown on Transwell HTS 24-well cell culture inserts (Costar, catalog #3378), are exposed to test agents or controls dissolved in incubation medium. The CF-HBE cells are cultured at 36.5° C. for 48 hours before TECC24 recordings are performed in the presence or absence of test agent, a positive control or vehicle (DMSO).
# Following incubation, the transwell cell culture inserts containing the test agent or control-treated CF-HBE cells are loaded onto a TECC24 apparatus (TECC v7 or MTECC v2; EP Design) to record the transepithelial voltage (VT) and resistance (TEER) using 4 AgCl electrodes per well configured in current-clamp mode. The apical and basolateral bath solutions both contain (in mM) 140 NaCl, 5 KCl, 2 CaCl2, 1 MgCl2, 10 Hepes, and 10 glucose (adjusted to pH 7.4 with NaOH). To inhibit basal Na+ absorption, the ENaC inhibitor benzamil (10 μM) is added to the bath. Then, the adenylate cyclase activator, forskolin (10 μM), is added to the bath to activate CFTR. The forskolin-stimulated Cl— transport is halted by addition of CFTR inhibitor-172 (20 μM) to the bath at the end of the experiment to confirm specificity. VT and TEER recordings are digitally acquired at routine intervals using TECC or MTECC software (EP Design). VT and TEER are transformed into equivalent transepithelial Cl— current (IEQ), and the Area Under the Curve (AUC) of the IEQ time course between forskolin and CFTR inhibitor-172 addition is generated using Excel (Microsoft). Efficacy is expressed as the ratio of the test agent AUC divided by vehicle AUC. EC50s based on AUC are generated using the non-linear regression log(agonist) vs. response function in Prism software (Graphpad) with HillSlope fixed=1.
# If a test agent increases the AUC of the forskolin-stimulated IEQ relative to vehicle in CF-HBE cells, and this increase is inhibited by CFTR inhibitor-172, then the test agent is considered a CFTR corrector. TECC assay efficacy is expressed as the ratio of the test agent AUC divided by DMSO vehicle AUC. As set forth in Table 2 below, a TECC value less than 12 is marked “A”; a value between 12-20 is marked “B”; a value between 20 and 80 is marked “C”. […]
# T2 sequence (P13569 with tags, fused parts or gaps DEL508-508): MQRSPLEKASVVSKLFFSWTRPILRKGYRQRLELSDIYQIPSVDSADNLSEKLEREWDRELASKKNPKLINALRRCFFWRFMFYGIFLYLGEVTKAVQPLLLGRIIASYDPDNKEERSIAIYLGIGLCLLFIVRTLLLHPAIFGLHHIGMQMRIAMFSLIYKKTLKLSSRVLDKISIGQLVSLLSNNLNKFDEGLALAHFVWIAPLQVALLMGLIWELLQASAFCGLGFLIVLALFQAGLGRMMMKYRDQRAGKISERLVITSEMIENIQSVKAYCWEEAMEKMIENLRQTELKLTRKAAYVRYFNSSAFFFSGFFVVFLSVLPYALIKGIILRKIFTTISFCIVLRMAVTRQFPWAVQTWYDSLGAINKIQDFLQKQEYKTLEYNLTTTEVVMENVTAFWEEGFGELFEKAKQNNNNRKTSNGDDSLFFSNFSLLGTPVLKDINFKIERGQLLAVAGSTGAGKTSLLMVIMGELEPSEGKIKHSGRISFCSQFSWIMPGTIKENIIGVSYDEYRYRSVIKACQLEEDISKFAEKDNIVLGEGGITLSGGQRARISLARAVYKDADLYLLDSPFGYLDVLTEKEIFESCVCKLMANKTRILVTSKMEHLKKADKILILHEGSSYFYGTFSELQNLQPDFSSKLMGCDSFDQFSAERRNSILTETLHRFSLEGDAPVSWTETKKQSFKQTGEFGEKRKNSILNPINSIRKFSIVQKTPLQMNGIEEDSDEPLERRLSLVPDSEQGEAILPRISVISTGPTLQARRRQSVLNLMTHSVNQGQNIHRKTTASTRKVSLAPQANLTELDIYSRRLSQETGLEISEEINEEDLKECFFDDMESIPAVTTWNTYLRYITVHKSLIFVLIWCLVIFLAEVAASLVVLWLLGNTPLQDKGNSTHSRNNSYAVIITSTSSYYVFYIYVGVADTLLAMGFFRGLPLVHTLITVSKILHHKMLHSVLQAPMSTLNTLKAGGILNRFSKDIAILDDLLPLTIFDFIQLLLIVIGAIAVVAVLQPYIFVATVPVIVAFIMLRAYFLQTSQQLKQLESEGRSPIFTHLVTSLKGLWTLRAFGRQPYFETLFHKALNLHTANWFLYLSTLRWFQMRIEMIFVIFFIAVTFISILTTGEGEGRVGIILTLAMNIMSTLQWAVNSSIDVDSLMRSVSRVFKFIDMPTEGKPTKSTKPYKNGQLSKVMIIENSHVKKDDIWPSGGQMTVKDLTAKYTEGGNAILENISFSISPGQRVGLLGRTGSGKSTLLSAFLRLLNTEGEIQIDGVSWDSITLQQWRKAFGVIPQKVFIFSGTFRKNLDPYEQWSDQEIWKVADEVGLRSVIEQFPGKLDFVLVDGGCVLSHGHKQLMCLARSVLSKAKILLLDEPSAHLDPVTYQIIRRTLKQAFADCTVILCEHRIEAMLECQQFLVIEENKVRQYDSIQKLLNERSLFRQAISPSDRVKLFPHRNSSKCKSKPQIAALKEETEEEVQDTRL
# T1 sequence (P13569 423-646 limits assumed): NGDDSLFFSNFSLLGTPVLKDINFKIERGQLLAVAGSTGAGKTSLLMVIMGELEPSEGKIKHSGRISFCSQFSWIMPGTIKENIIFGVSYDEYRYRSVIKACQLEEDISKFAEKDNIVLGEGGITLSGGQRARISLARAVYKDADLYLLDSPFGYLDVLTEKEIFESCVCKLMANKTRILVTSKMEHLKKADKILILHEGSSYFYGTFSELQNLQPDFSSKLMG
SMILES,DSLS 3D (100 μM ΔT) (NBD1),"TECC (AUC, 10 μM) (CFTR)"
"Cn1nc2nc1-c1cc(ccc1F)Oc1c(F)cc3[nH]ccc3c1CCS(=O)(=O)CC(C)(C)CCCC2(C)c1cccc(/C=C2\NC(=O)NC2=O)c1 (racemic) [Compound 174, (5Z)-5-[[3-(22,28-Difluoro-3,6,10,10-tetramethyl-12,12-dioxo-24-oxa-12λ6-thia-3,4,19,30-tetrazapentacyclo[23.3.1.12,5.015,23.016,20]-triaconta-1(29),2(30),4,15,17,20,22,25,27-nonaen-6-yl)phenyl]methylene]imidazolidine-2,4-dione]",C (a value greater than 10 °C and less than or equal to 25 °C is marked “C”),A (a TECC value less than 12 is marked “A”)
"Cn1nc2nc1-c1cc(ccn1)Oc1c(F)cc3[nH]ccc3c1CCS(=O)(=O)CC(C)(C)CCC[C@]2(C)c1cccc(CCC(=O)O)c1 (racemic) [Compound 228, 3-[3-[rac-(6R)-22-fluoro-3,6,10,10-tetramethyl-12,12-dioxo-24-oxa-12λ6-thia-3,4,19,28,30-pentazapentacyclo[23.3.1.12,5.015,23.016,20]triaconta-1(29),2(30),4,15,17,20,22,25,27-nonaen-6-yl]phenyl]propanoic acid]",C (a value greater than 10 °C and less than or equal to 25 °C is marked “C”),C (a value between 20 and 80 is marked “C”)
"C[C@@H](Cc1cccc([C@@]2(C)CCCC(C)(C)CS(=O)(=O)CCc3c(c(F)c(F)c4[nH]ccc34)Sc3ccc(F)c(c3)-c3nc2nn3C)c1)C(=O)O (racemic) [Compound 259, (2S)-2-methyl-3-[3-[(6R)-21,22,28-trifluoro-3,6,10,10-tetramethyl-12,12-dioxo-12λ6,24-dithia-3,4,19,30-tetrazapentacyclo[23.3.1.12,5.015,23.016,20]triaconta-1(29),2(30),4,15,17,20,22,25,27-nonaen-6-yl]phenyl]propanoic Acid]",C (a value greater than 10 °C and less than or equal to 25 °C is marked “C”),C (a value between 20 and 80 is marked “C”)
"Cn1nc2nc1-c1cc(ccn1)Cc1c(F)cc3[nH]ccc3c1CCS(=O)(=O)CC(C)(C)CCC[C@]2(C)c1cccc(CC(C)(C)C(=O)O)c1 (racemic) [Compound 295, 2,2-dimethyl-3-[3-[rac-(6R)-22-fluoro-3,6,10,10-tetramethyl-12,12-dioxo-12λ6-thia-3,4,19,28,30-pentazapentacyclo[23.3.1.12,5.015,23.016,20]triaconta-1(29),2(30),4,15,17,20,22,25,27-nonaen-6-yl]phenyl]propanoic Acid]",B (a value above 5 °C and less than or equal to 10 °C is marked “B”),B (a value between 12-20 is marked “B”)
"[2H]C([2H])([2H])n1nc2nc1-c1cc(ccc1F)Oc1c(F)cc3[nH]ccc3c1CCS(=O)(=O)CC(C)(C)CCCC2(C)c1cccc(OCC(=O)O)c1 (single isomer, unassigned) [Compound 1A, 2-[3-[22,28-Difluoro-6,10,10-trimethyl-12,12-dioxo-3-(trideuteriomethyl)-24-oxa-12λ^6-thia-3,4,19,30-tetrazapentacyclo[23.3.1.1^2,5.0^15,23.0^16,20]triaconta-1(29),2(30),4,15,17,20,22,25,27-nonaen-6-yl]phenoxy]acetic Acid]",C (a value greater than 10 °C and less than or equal to 25 °C is marked “C”),C (a value between 20 and 80 is marked “C”)
"[2H]C([2H])([2H])n1nc2nc1-c1cc(ccc1F)Oc1c(F)cc3[nH]ccc3c1CCS(=O)(=O)CC(C)(C)CCCC2(C)c1cccc(OCC(=O)O)c1 (single isomer, unassigned) [Compound 1B, 2-[3-[22,28-Difluoro-6,10,10-trimethyl-12,12-dioxo-3-(trideuteriomethyl)-24-oxa-12λ^6-thia-3,4,19,30-tetrazapentacyclo[23.3.1.1^2,5.0^15,23.0^16,20]triaconta-1(29),2(30),4,15,17,20,22,25,27-nonaen-6-yl]phenoxy]acetic Acid]",A (an ΔTagg value less than or equal to 5 °C is marked “A”),A (a TECC value less than 12 is marked “A”)
"Cn1nc2nc1-c1cc(ccc1F)Oc1c(F)cc3[nH]ccc3c1CCS(=O)(=O)CCC(F)(F)CCC2(C)c1cccc(CCC(=O)O)c1 (single isomer, unassigned) [Compound 2A, 3-[3-(9,9,22,28-Tetrafluoro-3,6-dimethyl-12,12-dioxo-24-oxa-12λ^6-thia-3,4,19,30-tetrazapentacyclo[23.3.1.1^2,5.0^15,23.0^16,20]triaconta-1(29),2(30),4,15,17,20,22,25,27-nonaen-6-yl)phenyl]propanoic Acid]",B (a value above 5 °C and less than or equal to 10 °C is marked “B”),B (a value between 12-20 is marked “B”)
"Cn1nc2nc1-c1cc(ccc1F)Oc1c(F)cc3[nH]ccc3c1CCS(=O)(=O)CCC(F)(F)CCC2(C)c1cccc(CCC(=O)O)c1 (single isomer, unassigned) [Compound 2B, 3-[3-(9,9,22,28-Tetrafluoro-3,6-dimethyl-12,12-dioxo-24-oxa-12λ^6-thia-3,4,19,30-tetrazapentacyclo[23.3.1.1^2,5.0^15,23.0^16,20]triaconta-1(29),2(30),4,15,17,20,22,25,27-nonaen-6-yl)phenyl]propanoic Acid]",A (an ΔTagg value less than or equal to 5 °C is marked “A”),A (a TECC value less than 12 is marked “A”)
"Cn1nc2nc1-c1cc(ccc1F)Oc1c(F)cc3[nH]ccc3c1CCS(=O)(=O)CC(C)(C)CCCC2(C)c1cccc(CCO)c1 (single isomer, unassigned) [Compound 4A, 2-[3-(22,28-Difluoro-3,6,10,10-tetramethyl-12,12-dioxo-24-oxa-12λ^6-thia-3,4,19,30-tetrazapentacyclo[23.3.1.1^2,5.0^15,23.0^16,20]triaconta-1(29),2(30),4,15,17,20,22,25,27-nonaen-6-yl)phenyl]ethanol]",C (a value greater than 10 °C and less than or equal to 25 °C is marked “C”),C (a value between 20 and 80 is marked “C”)
"Cn1nc2nc1-c1cc(ccc1F)Oc1c(F)cc3[nH]ccc3c1CCS(=O)(=O)CC(C)(C)CCCC2(C)c1cccc(CCO)c1 (single isomer, unassigned) [Compound 4B, 2-[3-(22,28-Difluoro-3,6,10,10-tetramethyl-12,12-dioxo-24-oxa-12λ^6-thia-3,4,19,30-tetrazapentacyclo[23.3.1.1^2,5.0^15,23.0^16,20]triaconta-1(29),2(30),4,15,17,20,22,25,27-nonaen-6-yl)phenyl]ethanol]",A (an ΔTagg value less than or equal to 5 °C is marked “A”),A (a TECC value less than 12 is marked “A”)
"Cn1nc2nc1-c1cc(ccc1F)Oc1c(F)cc3[nH]ccc3c1CCS(=O)(=O)CC(C)(C)OCCC2(C)c1cccc(CC(=O)O)c1 (single isomer, unassigned) [Compound 5A, 2-[3-(22,28-Difluoro-3,6,10,10-tetramethyl-12,12-dioxo-9,24-dioxa-12λ^6-thia-3,4,19,30-tetrazapentacyclo[23.3.1.12,5.015,23.016,20]triaconta-1(29),2(30),4,15,17,20,22,25,27-nonaen-6-yl)phenyl]acetic Acid]",C (a value greater than 10 °C and less than or equal to 25 °C is marked “C”),B (a value between 12-20 is marked “B”)
